Laboratory results taken from patent publication US10865216B2, “Tricyclic Gyrase inhibitors” (MERCK SHARP & DOHME CORP., priority 2012, dated 2020).
Values after ≈ are worked out from the molar mass of the structure shown.

Key:
S. aureus ATCC 13709 = experiment: MIC, S. aureus ATCC 13709; type: cell-based; settings: S. aureus; Alamar Blue read after overnight incubation at 35° C.
E. coli ATCC 25922 = experiment: MIC, E. coli ATCC 25922; type: cell-based; settings: E. coli; Alamar Blue read after overnight incubation at 35° C.

| MIC Sa (S. aureus ATCC 13709) | MIC Ec (E. coli ATCC 25922) | Structure (SMILES) |
| --- | --- | --- |
| ≤0.5 µg/mL | ≤0.5 µg/mL | CNc1cc(F)cc2c1[nH]c1nc(Oc3cncc(C#N)c3)nc(N3CC4C(N)C4C3)c12 (stereo not shown) [Compound 4.050] |
| ≤0.5 µg/mL | 2 µg/mL (≈ 4.5 µM) | CNc1cc(F)cc2c1[nH]c1nc(Oc3cncc(C#N)c3)nc(N3CC(N)C4(CC4)C3)c12 (stereo not shown) [Compound 4.051] |
| ≤0.5 µg/mL | ≤0.5 µg/mL | CNc1cc(F)cc2c1[nH]c1nc(Oc3cncc(C#N)c3)nc(N3CCC4(CC4N)C3)c12 (stereo not shown) [Compound 4.052] |
| ≤0.5 µg/mL | ≤0.5 µg/mL | CNc1cc(F)cc2c1[nH]c1nc(Oc3cncc(C#N)c3)nc(N3CC4CC(N)C4C3)c12 (stereo not shown) [Compound 4.053] |
| ≤0.5 µg/mL | ≤0.5 µg/mL | CNc1cc(F)cc2c1[nH]c1nc(Oc3cncc(C#N)c3)nc(N3CC4(CCC4N)C3)c12 (stereo not shown) [Compound 4.054] |
| ≤0.5 µg/mL | ≤0.5 µg/mL | CNc1cc(F)cc2c1[nH]c1nc(Oc3cncc(F)c3)nc(N3CC4C(N)C4C3)c12 (stereo not shown) [Compound 4.055] |
| ≤0.5 µg/mL | ≤0.5 µg/mL | CNc1cc(F)cc2c1[nH]c1nc(Oc3cncc(F)c3)nc(N3CC(N)C4(CC4)C3)c12 (stereo not shown) [Compound 4.056] |
| ≤0.5 µg/mL | ≤0.5 µg/mL | CNc1cc(F)cc2c1[nH]c1nc(Oc3cncc(F)c3)nc(N3CC(N)C4(CC4)C3)c12 (stereo not shown) [Compound 4.057] |
| ≤0.5 µg/mL | ≤0.5 µg/mL | CNc1cc(F)cc2c1[nH]c1nc(Oc3cncc(F)c3)nc(N3CC4(CCC4N)C3)c12 (stereo not shown) [Compound 4.061] |
| ≤0.5 µg/mL | ≤0.5 µg/mL | CNc1cc(F)cc2c1[nH]c1nc(Oc3cncc(F)c3)nc(N3CCC4(CC4N)C3)c12 (stereo not shown) [Compound 4.062] |
| ≤0.5 µg/mL | ≤0.5 µg/mL | CNc1cc(F)cc2c1[nH]c1nc(Oc3cnc(C)nc3)nc(N3CC4CNC4C3)c12 (stereo not shown) [Compound 4.067] |
| ≤0.5 µg/mL | 2 µg/mL (≈ 4.58 µM) | CNc1cc(F)cc2c1[nH]c1nc(Oc3cnc(C)nc3)nc(N3CCCC(N)CC3)c12 (stereo not shown) [Compound 4.071] |
| ≤0.5 µg/mL | 8 µg/mL (≈ 16.8 µM) | CNc1cc(F)cc2c1[nH]c1nc(Oc3cnc(C)nc3)nc(N3CC4C(C3)C4NC(=O)CN)c12 (stereo not shown) [Compound 4.078] |
| ≤0.5 µg/mL | 1 µg/mL (≈ 2.3 µM) | CNc1cc(F)cc2c1[nH]c1nc(Oc3cnc(C)nc3)nc(N3CC(C4(N)CC4)C3)c12 [Compound 4.080] |
| ≤0.5 µg/mL | ≤0.5 µg/mL | CNc1cc(F)cc2c1[nH]c1nc(Oc3cnc(C)nc3)nc(N3CCC(C4(N)CC4)C3)c12 (stereo not shown) [Compound 4.083] |
| ≤0.5 µg/mL | 1 µg/mL (≈ 2.29 µM) | CNc1cc(F)cc2c1[nH]c1nc(Oc3cnc(C)nc3)nc(N3CC(C)C(CN)C3)c12 (stereo not shown) [Compound 4.087] |
| ≤0.5 µg/mL | 1 µg/mL (≈ 2.29 µM) | CNc1cc(F)cc2c1[nH]c1nc(Oc3cnc(C)nc3)nc(N3CCCC(C)(N)C3)c12 (stereo not shown) [Compound 4.088] |
| ≤0.5 µg/mL | 1 µg/mL (≈ 2.23 µM) | CNc1cc(F)cc2c1[nH]c1nc(Oc3cnc(C)nc3)nc(N3C4CCC3CC(N)C4)c12 (stereo not shown) [Compound 4.091] |
| ≤0.5 µg/mL | ≤0.5 µg/mL | CNc1cc(F)cc2c1[nH]c1nc(Oc3cnc(C)nc3)nc(N3CC4CCNC4C3)c12 (stereo not shown) [Compound 4.094] |
| ≤0.5 µg/mL | 2 µg/mL (≈ 4.2 µM) | CNc1cc(F)cc2c1[nH]c1nc(Oc3cnc(C)nc3)nc(N3C[C@@H]4C(N)CC(C)(C)[C@@H]4C3)c12 (stereo partly shown) [Compound 4.097] |
| ≤0.5 µg/mL | 1 µg/mL (≈ 2.3 µM) | CNc1cc(F)cc2c1[nH]c1nc(Oc3cnc(C)nc3)nc(N3CC4CC4(CN)C3)c12 (stereo not shown) [Compound 4.098] |
| ≤0.5 µg/mL | 4 µg/mL (≈ 8.65 µM) | CNc1cc(F)cc2c1[nH]c1nc(Oc3cnc(C)nc3)nc(N3CC4CCC(N)C4(C)C3)c12 (stereo not shown) [Compound 4.099] |
| ≤0.5 µg/mL | ≤0.5 µg/mL | CNc1cc(F)cc2c1[nH]c1nc(Oc3cnc(C)nc3)nc(N3CC4(CCC4N)C3)c12 (stereo not shown) [Compound 4.100] |
| ≤0.5 µg/mL | ≤0.5 µg/mL | CNc1cc(F)cc2c1[nH]c1nc(Oc3cnc(C)nc3)nc(N3CC4CC(N)CC4C3)c12 (stereo not shown) [Compound 4.104] |
| ≤0.5 µg/mL | 2 µg/mL (≈ 4.6 µM) | CNc1cc(F)cc2c1[nH]c1nc(Oc3cnc(C)nc3)nc(N3CC4C(CN)C4C3)c12 (stereo not shown) [Compound 4.106] |
| >16 µg/mL | >16 µg/mL | CNc1cc(F)cc2c1[nH]c1nc(Oc3cnc(C)nc3)nc(N3CCC4(CC3)NC(=O)NC4=O)c12 [Compound 4.107] |
| 4 µg/mL (≈ 10.1 µM) | >16 µg/mL | CNc1cc(F)cc2c1[nH]c1nc(Oc3cnc(C)nc3)nc(NCCCN)c12 [Compound 4.108] |

| MIC Sa (S. aureus ATCC 13709) | MIC Ec (E. coli ATCC 25922) | Structure (SMILES) |
| --- | --- | --- |
| ≤0.5 µg/mL | 1 µg/mL (≈ 2.16 µM) | CNc1cc(F)cc2c1[nH]c1nc(Oc3cnc(C)nc3)nc(N3CC4CCC(CN)C4C3)c12 (stereo not shown) [Compound 4.112] |
| ≤0.5 µg/mL | 2 µg/mL (≈ 4.44 µM) | CNc1cc(F)cc2c1[nH]c1nc(Oc3cnc(C)nc3)nc(N3CC4NCCOC4C3)c12 (stereo not shown) [Compound 4.114] |
| 1 µg/mL (≈ 2.37 µM) | 8 µg/mL (≈ 18.9 µM) | CNc1cc(F)cc2c1[nH]c1nc(Oc3cnc(C)nc3)nc(N3C[C@H](N)C[C@@H]3C)c12 [Compound 4.115] |
| ≤0.5 µg/mL | ≤0.5 µg/mL | CNc1cc(F)cc2c1[nH]c1nc(Oc3cnc(C)nc3)nc(N3CC4CCNC4(C)C3)c12 (stereo not shown) [Compound 4.116] |
| ≤0.5 µg/mL | 1 µg/mL (≈ 2.29 µM) | CNc1cc(F)cc2c1[nH]c1nc(Oc3cnc(C)nc3)nc(N3CC4CONC4C3)c12 (stereo not shown) [Compound 4.122] |
| ≤0.5 µg/mL | 4 µg/mL (≈ 9.21 µM) | CNc1cc(F)cc2c1[nH]c1nc(Oc3cnc(C)nc3)nc(N3CCC4(CNC4)C3)c12 [Compound 4.125] |
| ≤0.5 µg/mL | 2 µg/mL (≈ 4.46 µM) | CNc1cc(F)cc2c1[nH]c1nc(Oc3cnc(C)nc3)nc(N3CCC4(CCNC4)C3)c12 (stereo not shown) [Compound 4.126] |
| >16 µg/mL | >16 µg/mL | CNc1cc(F)cc2c1[nH]c1nc(Oc3cnc(C)nc3)nc(N(C)C3CNC3)c12 [Compound 4.134] |
| ≤0.5 µg/mL | 1 µg/mL (≈ 2.29 µM) | CNc1cc(F)cc2c1[nH]c1nc(Oc3cnc(C)nc3)nc(N3CCC(C)(N)CC3)c12 [Compound 4.135] |
| ≤0.5 µg/mL | ≤0.5 µg/mL | CNc1cc(F)cc2c1[nH]c1nc(Oc3cnc(C)nc3)nc(N3CC(N)C3)c12 [Compound 4.138] |
| ≤0.5 µg/mL | ≤0.5 µg/mL | CNc1cc(F)cc2c1[nH]c1nc(Oc3cnc(C)nc3)nc(N3CCC4(CCC4N)CC3)c12 (stereo not shown) [Compound 4.139] |
| ≤0.5 µg/mL | 2 µg/mL (≈ 4.9 µM) | CNc1cc(F)cc2c1[nH]c1nc(Oc3cnc(C)nc3)nc(N3CC(CN)C3)c12 [Compound 4.143] |
| ≤0.5 µg/mL | 4 µg/mL (≈ 9.21 µM) | CNc1cc(F)cc2c1[nH]c1nc(Oc3cnc(C)nc3)nc(N3CC4CC(N)C3C4)c12 (stereo not shown) [Compound 4.148] |
| ≤0.5 µg/mL | 2 µg/mL (≈ 4.46 µM) | CNc1cc(F)cc2c1[nH]c1nc(Oc3cnc(C)nc3)nc(N3CC4(CCCNC4)C3)c12 [Compound 4.149] |
| ≤0.5 µg/mL | 1 µg/mL (≈ 2.22 µM) | CNc1cc(F)cc2c1[nH]c1nc(Oc3cnc(C)nc3)nc(N3CCC(N)C(C)(C)C3)c12 (stereo not shown) [Compound 4.152] |
| ≤0.5 µg/mL | 2 µg/mL (≈ 4.6 µM) | CNc1cc(F)cc2c1[nH]c1nc(Oc3cnc(C)nc3)nc(N3CC4(CC(N)C4)C3)c12 [Compound 4.153] |
| ≤0.5 µg/mL | ≤0.5 µg/mL | CNc1cc(F)cc2c1[nH]c1nc(Oc3cnc(C)nc3)nc(N3CC4CCNC4C3)c12 (stereo not shown) [Compound 4.156] |
| ≤0.5 µg/mL | 4 µg/mL (≈ 8.9 µM) | CNc1cc(F)cc2c1[nH]c1nc(Oc3cnc(C)nc3)nc(N3CC(N4CC(N)C4)C3)c12 [Compound 4.158] |
| ≤0.5 µg/mL | ≤0.5 µg/mL | CNc1cc(F)cc2c1[nH]c1nc(Oc3cnc(C)nc3)nc(N3CCC(F)(CN)CC3)c12 [Compound 4.159] |
| ≤0.5 µg/mL | ≤0.5 µg/mL | CNc1cc(F)cc2c1[nH]c1nc(Oc3cnc(C)nc3)nc(-c3ccc(Cl)cc3N)c12 [Compound 4.161] |
| ≤0.5 µg/mL | ≤0.5 µg/mL | CNc1cc(F)cc2c1[nH]c1nc(Oc3cnc(C)nc3)nc(N3CCNCC3)c12 [Compound 4.163] |
| ≤0.5 µg/mL | 1 µg/mL (≈ 2.3 µM) | CNc1cc(F)cc2c1[nH]c1nc(Oc3cncc(OC)c3)nc(N3CC4C(N)C4C3)c12 (stereo not shown) [Compound 4.164] |
| ≤0.5 µg/mL | ≤0.5 µg/mL | CNc1cc(F)cc2c1[nH]c1nc(Oc3cncc(OC)c3)nc(N3CC4CC(N)C4C3)c12 (stereo not shown) [Compound 4.167] |
| ≤0.5 µg/mL | 2 µg/mL (≈ 4.1 µM) | CNc1cc(F)cc2c1[nH]c1nc(Oc3cncc(-c4nnnn4C)c3)nc(N3CC4C(N)C4C3)c12 (stereo not shown) [Compound 4.168] |
| 2 µg/mL (≈ 4.21 µM) | 8 µg/mL (≈ 16.8 µM) | CNc1cc(F)cc2c1[nH]c1nc(Oc3cncc(-c4nnnn4C)c3)nc(N3CCC(N)C3)c12 (stereo not shown) [Compound 4.169] |
| ≤0.5 µg/mL | 4 µg/mL (≈ 7.98 µM) | CNc1cc(F)cc2c1[nH]c1nc(Oc3cncc(-c4nnnn4C)c3)nc(N3CC4C[C@@H](N)C4C3)c12 (stereo partly shown) [Compound 4.171] |

| Structure (SMILES) | MIC Sa (S. aureus ATCC 13709) | MIC Ec (E. coli ATCC 25922) |
| --- | --- | --- |
| CNc1cc(F)cc2c1[nH]c1nc(Oc3cnc(C)nc3)nc(N3CC(N)C4(CC4)C3)c12 (stereo not shown) [Compound 4.065] | ≤0.5 µg/mL | ≤0.5 µg/mL |
| CNc1cc(F)cc2c1[nH]c1nc(Oc3cnc(C)nc3)nc(N3CC(N)C4(CC4)C3)c12 (stereo not shown) [Compound 4.068] | ≤0.5 µg/mL | ≤0.5 µg/mL |
| CNc1cc(F)cc2c1[nH]c1nc(Oc3cnc(C)nc3)nc(C3=CCNCC3)c12 [Compound 4.162] | 8 µg/mL (≈ 19.7 µM) | >16 µg/mL |
